Structures can show the parent of a compound that is named as a salt. Where two headings read alike, the source gives them in different places.
Experiments:
lung cancer cells (A549) [1] = conditions: lung mimicking model, FIG. 5A
Description: Then, gelation was allowed at room temperature for 15 minutes. Then, after coating with collagen (0.03 mg/ml, 1 VL content) (sigma, collagen type I solution) and fibronectin (0.001%, 5 mg) (Sigma, F0895) for two hours at 37° C., a total of 20 μl of 4×10^6/ml of HUVEC (LONZA, HUVEC-Umbil vein, Pooled cells) as vascular endothelial cells was added into one of the cell culture channels, the chip was raised at 90°, and the cells were cultured for one to two hours so as to be adhered in a direction of the gel layer formed in the middle. Then, put the chip down to its original state, replace the medium, and when the vascular endothelial cells form one blood vessel layer starting from the gel layer in the middle, a total of 20 μl of 1×10^6/ml lung cancer cells (A549) were put on the same layer, the chip was raised at 90° and cultured overnight so that the chip was attached in the direction of the gel layer formed in the middle. Then, the chip was put down again, the medium was replaced, and cultured for 5 days, and it was confirmed whether the lung cancer cells migrated to the middle gel layer. After that, the chip was put down to the original state again, the medium was replaced, the cells were cultured for five days, and whether the lung cancer cells migrated to the middle gel layer was checked. […]

lung cancer cells (A549) [2] = conditions: BBB mimicking model, FIG. 5B
Excerpt: In addition, the BBB mimicking model was manufactured in the same method of manufacturing the lung mimicking model, but astrocytes (Human Astrocytes) (ScienCell, #1800) were used instead of fibroblasts, human brain microvascular endothelial cells (HBMVEC) (Cell systems, ACBRI 376) were used instead of HUVECs as vascular endothelial cells, and the total culture periods were set to be different due to the difference in cell proliferation rates between the lung mimicking model and the BBB mimicking model. […] In the experimental method, as described in Example 1 above, blood vessel cells were treated with CD31, lung cancer cells were treated with cytokeratin 8, and the cells were photographed by using a confocal microscope, Carl Zeiss, LSM710.

Which “metastasis of lung cancer cells” value (lung cancer cells (A549) [1]; 1 μg/ml and 5 μg/ml, treated for one day or six days, compared to the group to which AMD3100 is not treated, confocal microscope) does the source give for `c1cc(CN2CCCNCCNCCCNCC2)ccc1CN1CCCNCCNCCCNCC1` [AMD3100, AMD3100 (octahydrochloride)] here?
Its value is “generally reduced”.

What about the metastasis suppression (lung cancer cells (A549) [1]; 1 μg/ml treated for six days, compared among treatment groups) of the same compound?
The metastasis suppression was “best metastasis suppression”.

And the “metastasis of lung cancer cells” value (lung cancer cells (A549) [2]; 1 μg/ml and 5 μg/ml, treated for one day or six days, confocal microscope)?
The value was “reduced more”.

And the metastasis suppression (lung cancer cells (A549) [2]; 1 μg/ml treated for one day, compared among treatment groups)?
The metastasis suppression was “best metastasis suppression”.

— patent publication US20250198987A1, “SYSTEM FOR MEASURING METASTATIC POTENTIAL OF CANCER CELLS AND METHOD FOR MEASURING METASTATIC POTENTIAL OF CANCER CELLS BY USING SAME” (Seoul National University Hospital, priority 2020, published 2025)
